Assay results as given in patent EP4800012A1, “COMPOUND ACTING AS PARP7 INHIBITOR” (Dovetree Medicines Unus, Inc., priority 2023, dated 2025).
Where two headings read alike, the source gives them in different places.

Key:
[1] = biological target: T1, PARP7 (Homo sapiens, UniProt Q7Z3E1); assay: Inhibition of the compound on PARP7 protein activity (ADP-ribosylation, chemiluminescence); type: biochemical
T1 construct: purchased BPS 80527
T1 sequence (Q7Z3E1 1-657): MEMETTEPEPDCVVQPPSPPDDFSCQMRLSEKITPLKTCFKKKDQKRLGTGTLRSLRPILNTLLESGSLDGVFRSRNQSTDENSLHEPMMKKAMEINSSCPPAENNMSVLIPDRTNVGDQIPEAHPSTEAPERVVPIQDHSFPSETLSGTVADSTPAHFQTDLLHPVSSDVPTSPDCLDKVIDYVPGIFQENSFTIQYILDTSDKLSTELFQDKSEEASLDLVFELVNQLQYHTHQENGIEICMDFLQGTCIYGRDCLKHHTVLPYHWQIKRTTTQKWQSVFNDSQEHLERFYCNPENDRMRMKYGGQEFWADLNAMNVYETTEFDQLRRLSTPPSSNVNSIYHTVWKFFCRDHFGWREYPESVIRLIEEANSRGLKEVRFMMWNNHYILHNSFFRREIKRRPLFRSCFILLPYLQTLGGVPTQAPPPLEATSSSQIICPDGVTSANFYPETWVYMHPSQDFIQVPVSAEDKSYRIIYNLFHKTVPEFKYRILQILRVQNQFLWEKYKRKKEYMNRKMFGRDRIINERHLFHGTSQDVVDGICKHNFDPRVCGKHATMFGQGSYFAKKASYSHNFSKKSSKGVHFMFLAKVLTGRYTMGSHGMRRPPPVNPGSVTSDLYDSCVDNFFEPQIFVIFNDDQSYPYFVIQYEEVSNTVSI

[2] = test system: NCI-H1373 cells; assay: Inhibition on NCI-H1373 cell proliferation (Cell-Titer-Glo); type: cell-based; details: Homo sapiens, read-out: NCI-H1373 cell proliferation inhibition IC50
Protocol: The inhibitory effect of the compound on PARP7 was evaluated by testing the inhibitory effect of the compound on NCI-H1373 cell proliferation.
NCI-H1373 cells (ATCC, CRL-5866) were cultured in a complete medium, namely, a RPMI-1640 medium (Gibco, 22400089) containing 10% fetal bovine serum (Corning, 35-081-CV).
Negative control wells and positive control wells were added with 50 nL DMSO (Sigma, D2650), respectively.
In "Day 0" detection plate, NCI-H1373 cells were seeded at a density of 600 cells/well (50 µL) in a complete medium into the Day 0 test wells of a 384-well detection plate (Grenier, 781091). Then, 25 µL of Cell-Titer-Glo reagent (Promega, G7573) was added to each well, followed by centrifugation at 1000 rpm at room temperature for 1 minute and incubation at room temperature under shaded conditions for 10 min. Chemiluminescence signals were collected using an Envision (Perkin Elmer, EnVision 2105) to obtain the average value of the Day 0 test values.
In "compound detection plate", NCI-H1373 cells were seeded at a density of 600 cells/well (50 µL) in a complete medium into the negative control wells and the compound detection wells of a 384-well detection plate (Grenier, 781091), and 50 µL of cell culture medium was added to the positive control wells, followed by centrifugation at 1000 rpm at room temperature for 1 minute and placing in a cell incubator at 37°C, 5% CO2 for incubation for 6 days. […] Chemiluminescence signals were collected using an Envision (Perkin Elmer, EnVision 2105). The test values for each compound well, negative control well, and positive control well were obtained.
The proliferation inhibition ratio formula is as follows: [formula]
The average value of the negative control = the average value of the Day 6 test values of each negative control well minus the average value of the Day 0 test values
The average value of the positive control = the average value of the Day 6 test values of each positive control well
The average value of the compound test = (the Day 6 test value of compound test well 1 + the Day 6 test value of compound test well 2)/2 - the average value of the Day 0 test values

[3] = biological target: T1, PARP7; assay: PARP7 TR-FRET binding inhibition (displacement of probe RBN011147)
Protocol: The ability of the compound to substitute the probe RBN011147 (Wigle et al., 2020, Cell Chemical Biology 27, 877-887) was tested by a TR-FRET method, and IC50 was calculated to evaluate the binding ability of the compound to PARP7. […]

[4] = Histone H1 coated plate, Biotin-Labeled NAD+, 2 h at room temperature, chemiluminescence; read-out: PARP7 activity inhibition IC50
[5] = 144 h, NCI-H1373 cells, incubation for 6 days, Cell-Titer-Glo
[6] = TR-FRET, Biotin-labeled probe RBN011147; read-out: PARP7 binding inhibition IC50

Row | IC50 [1, 4] [nM] | IC50 [2, 5] [nM] | IC50 [3, 6] [nM] | Compound | IC50 ([2]; NCI-H1373, 144 h) [nM] | IC50 ([1]; read-out: PARP7 activity inhibition IC50; Histone H1 coated plate, Biotin-Labeled NAD+, 2 h at room temperature, chemiluminescence) [nM] | IC50 ([3]; read-out: PARP7 binding inhibition IC50; TR-FRET, Biotin-labeled probe RBN011147) [nM]
1 | < 3 | 1000 to 3000 | < 10 | O=C(NCCCC(Nc1cn[nH]c(=O)c1C(F)(F)F)C1CC1)c1ccc(-c2ncc(C(F)(F)F)s2)cc1 (stereo not drawn) [Example 55] |  |  | 
2 | 30 to 100 | > 3000 | 30 to 100 | CC(CCCNC(=O)c1ccc2c(=O)n(C)cnc2c1)Nc1cn[nH]c(=O)c1C(F)(F)F (stereo not drawn) [Example 59] |  |  | 
3 | < 3 | 300 to 1000 | < 10 | CC(CCCNC(=O)c1ccc(-c2cscn2)nc1)Nc1cn[nH]c(=O)c1C(F)(F)F (stereo not drawn) [Example 60] |  |  | 
4 | < 3 | < 300 | < 10 | CC(CCCNC(=O)c1ccc(-n2cc(C(F)(F)F)cn2)cc1)Nc1cn[nH]c(=O)c1C(F)(F)F (stereo not drawn) [Example 61] |  |  | 
5 | 30 to 100 | > 3000 | 30 to 100 | CC(CCCNC(=O)c1ccc(-n2cccn2)c(F)c1)Nc1cn[nH]c(=O)c1C(F)(F)F (stereo not drawn) [Example 62] |  |  | 
6 | < 3 | < 300 | < 10 | CC(CCCNC(=O)c1ccc(-c2ncc(N(C)C)cn2)cc1)Nc1cn[nH]c(=O)c1C(F)(F)F (stereo not drawn) [Example 63] |  |  | 
7 | 10 to 30 | > 3000 | > 100 | CC(CCCNC(=O)c1ccc(-c2ccc(=O)n(C)n2)cc1)Nc1cn[nH]c(=O)c1C(F)(F)F (stereo not drawn) [Example 64] |  |  | 
8 | 30 to 100 | > 3000 | 30 to 100 | COc1nc(-c2ccc(C(=O)NCCCC(C)Nc3cn[nH]c(=O)c3C(F)(F)F)cc2)cs1 (stereo not drawn) [Example 65] |  |  | 
9 | 30 to 100 | > 3000 | > 100 | Cc1cc(=O)n(C)nc1-c1ccc(C(=O)NCCCC(C)Nc2cn[nH]c(=O)c2C(F)(F)F)cc1 (stereo not drawn) [Example 66] |  |  | 
10 | < 3 | 300 to 1000 | < 10 | CC(CCCNC(=O)c1ccc(-c2ncc(C#N)cc2F)cc1)Nc1cn[nH]c(=O)c1C(F)(F)F (stereo not drawn) [Example 67] |  |  | 
11 | < 3 | 300 to 1000 | < 10 | Cc1cc(-c2ccc(C(=O)NCCCC(C)Nc3cn[nH]c(=O)c3C(F)(F)F)cc2)ncc1C#N (stereo not drawn) [Example 68] |  |  | 
12 | < 3 | 300 to 1000 | < 10 | CC(CCCNC(=O)c1ncc(-c2ncc(N3CC(F)C3)cn2)cc1F)Nc1cn[nH]c(=O)c1C(F)(F)F (stereo not drawn) [Example 72] |  |  | 
13 | < 3 | 300 to 1000 | < 10 | CC(CCCNC(=O)c1ncc(-c2ncc(C(F)(F)F)cn2)cc1F)Nc1cn[nH]c(=O)c1C(F)(F)F (stereo not drawn) [Example 73] |  |  | 
14 | < 3 | > 3000 | < 10 | CC(CCCNC(=O)c1ncc(-c2ncc(C(F)F)s2)cc1F)Nc1cn[nH]c(=O)c1C(F)(F)F (stereo not drawn) [Example 74] |  |  | 
15 | < 3 | < 300 | < 10 | CC(CCCNC(=O)c1ncc(-c2ncc(C(F)(F)F)s2)cc1F)Nc1cn[nH]c(=O)c1C(F)(F)F (stereo not drawn) [Example 75] |  |  | 
16 | 3 to 10 | > 3000 | 10 to 30 | Cc1c(CCC(=O)Nc2ncc(-c3ncc(C(F)(F)F)cn3)cc2F)c[nH]c(=O)c1C(F)(F)F [Example 76] |  |  | 

Row | IC50 [1, 4] [nM] | IC50 [2, 5] [nM] | IC50 [3, 6] [nM] | Compound | IC50 ([2]; NCI-H1373, 144 h) [nM] | IC50 ([1]; read-out: PARP7 activity inhibition IC50; Histone H1 coated plate, Biotin-Labeled NAD+, 2 h at room temperature, chemiluminescence) [nM] | IC50 ([3]; read-out: PARP7 binding inhibition IC50; TR-FRET, Biotin-labeled probe RBN011147) [nM]
17 | < 3 | < 300 | < 10 | CC(CCCNC(=O)c1ccc(-c2ncc(C(F)(F)F)s2)cc1F)Nc1cn[nH]c(=O)c1C(F)(F)F (stereo not drawn) [Example 77] |  |  | 
18 | 3 to 10 | > 3000 | 10 to 30 | CC(CCCNC(=O)c1ccc(-c2nc(C(F)(F)F)no2)cc1)Nc1cn[nH]c(=O)c1C(F)(F)F (stereo not drawn) [Example 78] |  |  | 
19 | 3 to 10 | > 3000 | < 10 | CC(CCCNC(=O)c1ccc(-c2cc(C(F)(F)F)on2)cc1)Nc1cn[nH]c(=O)c1C(F)(F)F (stereo not drawn) [Example 79] |  |  | 
20 | 10 to 30 | > 3000 | 30 to 100 | CC(CCCNC(=O)c1ccc(-c2csc(C(F)(F)F)n2)cc1)Nc1cn[nH]c(=O)c1C(F)(F)F (stereo not drawn) [Example 80] |  |  | 
21 | 30 to 100 | > 3000 | 30 to 100 | CC(CCCNC(=O)c1ccc(-c2nc(C(F)(F)F)cs2)cc1)Nc1cn[nH]c(=O)c1C(F)(F)F (stereo not drawn) [Example 81] |  |  | 
22 | 3 to 10 | > 3000 | 30 to 100 | CC(CCCNC(=O)c1ccc(-c2nnc(C(F)(F)F)s2)cc1)Nc1cn[nH]c(=O)c1C(F)(F)F (stereo not drawn) [Example 82] |  |  | 
23 | 3 to 10 | > 3000 | 30 to 100 | CC(CCCNC(=O)c1ncc(-c2ncc(C(F)(F)F)cn2)s1)Nc1cn[nH]c(=O)c1C(F)(F)F (stereo not drawn) [Example 151] |  |  | 
24 | < 3 | 1000 to 3000 | 10 to 30 | CC(CCCNC(=O)c1ccc(-c2ncc(C3CCCC3)s2)cc1)Nc1cn[nH]c(=O)c1C(F)(F)F (stereo not drawn) [Example 155] |  |  | 
25 | < 3 | 300 to 1000 | 10 to 30 | CC(CCCNC(=O)c1cnc(-n2cc(C(F)(F)F)cn2)cn1)Nc1cn[nH]c(=O)c1C(F)(F)F (stereo not drawn) [Example 175] |  |  | 
26 | < 3 | < 300 | < 10 | CC(CCCNC(=O)c1ccc(-n2cc(C(F)(F)F)cn2)cc1F)Nc1cn[nH]c(=O)c1C(F)(F)F (stereo not drawn) [Example 176] |  |  | 
27 | < 3 | 1000 to 3000 | < 10 | CC(CCCNC(=O)c1ccc(-c2csc(C(F)(F)F)n2)nc1)Nc1cn[nH]c(=O)c1C(F)(F)F (stereo not drawn) [Example 177] |  |  | 
28 | < 3 | > 3000 | 10 to 30 | CC(CCCNC(=O)c1cnc(-c2cscn2)c(F)c1)Nc1cn[nH]c(=O)c1C(F)(F)F (stereo not drawn) [Example 178] |  |  | 
29 | < 3 | > 3000 | 10 to 30 | CC(CCCNC(=O)c1ccc(-c2cscn2)cc1F)Nc1cn[nH]c(=O)c1C(F)(F)F (stereo not drawn) [Example 179] |  |  | 
30 | 3 to 10 | > 3000 | 30 to 100 | CC(CCCNC(=O)c1ncc(-c2cscn2)cc1F)Nc1cn[nH]c(=O)c1C(F)(F)F (stereo not drawn) [Example 182] |  |  | 
31 | < 3 | 300 to 1000 | < 10 | CC(CCCNC(=O)c1ncc(-n2cc(C(F)(F)F)cn2)cc1F)Nc1cn[nH]c(=O)c1C(F)(F)F (stereo not drawn) [Example 183] |  |  | 
32 | < 3 | 300 to 1000 | < 10 | CC(CCCNC(=O)c1cnc(-c2ncc(C(F)(F)F)s2)c(F)c1)Nc1cn[nH]c(=O)c1C(F)(F)F (stereo not drawn) [Example 184] |  |  | 

Row | Compound | IC50 [1, 4] [nM] | IC50 [2, 5] [nM] | IC50 [3, 6] [nM] | IC50 ([2]; NCI-H1373, 144 h) [nM] | IC50 ([1]; read-out: PARP7 activity inhibition IC50; Histone H1 coated plate, Biotin-Labeled NAD+, 2 h at room temperature, chemiluminescence) [nM] | IC50 ([3]; read-out: PARP7 binding inhibition IC50; TR-FRET, Biotin-labeled probe RBN011147) [nM]
33 | O=C(NCCCC(Nc1cn[nH]c(=O)c1C(F)(F)F)C1CC1)c1cnc(-c2ncc(C(F)(F)F)s2)cn1 (stereo not drawn) [Example 54] | 3 to 10 | > 3000 | 10 to 30 |  |  | 
34 | CC(CCCNC(=O)c1ccc(-c2ncc(N(C)C3CC3)s2)cc1)Nc1cn[nH]c(=O)c1C(F)(F)F (stereo not drawn) [Example 56] | < 3 | 300 to 1000 | < 10 |  |  | 
35 | CC(CCCNC(=O)c1ccc(-c2ncc(N(C)C)s2)cc1)Nc1cn[nH]c(=O)c1C(F)(F)F (stereo not drawn) [Example 57] | 3 to 10 |  | < 10 | 1000 to 3000 |  | 
36 | CC(CCCNC(=O)c1ccc(-c2ncc(N3CCCCC3)s2)cc1)Nc1cn[nH]c(=O)c1C(F)(F)F (stereo not drawn) [Example 58] | 3 to 10 | > 3000 | < 10 |  |  | 
37 | O=C(NCCC[C@H]1CCN1c1cn[nH]c(=O)c1C(F)(F)F)c1cnc(-c2ncc(C(F)(F)F)cn2)cn1 [Example 164] |  | > 3000 |  |  | > 100 | > 100
